Assay results from PMC3608651, “A Broad Profile of Co-Dominant Epitopes Shapes the Peripheral Mycobacterium tuberculosis Specific CD8+ T-Cell Immune Response in South African Patients with Active Tuberculosis” (PLoS ONE, 2013).
Read-outs that look alike come from different tables or passages of the source. Marks after values point to notes of the source that are not given here.

How the values were obtained:
[1] = target: T1, HLA-A*02:01 (Homo sapiens, UniProt P04439, D140Y/D185E/D98H/E176V/E277Q/G131W/G231S/I119V/I121R/I166T/I218V/L300P/L318F/N151K/N90K/P208A/P217A/Q86G/Q94H/R138H/R169H/T345S); settings: percent relative the binding of a positive control peptide; wild-type epitopes marked *; cited from earlier work
[2] = target: T1, HLA-A*02:01; settings: wild-type epitopes marked *; cited from earlier work
[3] = target: T1, HLA-A*02:01; settings: wild-type epitopes marked *; cited from earlier work; remark: listed apart in the source
[4] = target: T2, HLA-A*24:02 (Homo sapiens, UniProt P04439, D101N/D140Y/D185E/E176V/E190D/F33S/G103R/G107R/I119L/I121M/I306V/K335N/L105A/L180Q/L300P/N151K/N90K/Q86E/Q94H/R106L/R138H/R89G/T104I/T345S/V100E/W191G/Y123F); settings: percent relative the binding of a positive control peptide, cited from earlier work
[5] = target: T2, HLA-A*24:02; settings: cited from earlier work
[6] = target: T2, HLA-A*24:02; settings: cited from earlier work; remark: listed apart in the source
[7] = target: T3, HLA-A*30:02 (Homo sapiens, UniProt P04439, D101N/D140H/D185E/E176R/F33S/G80R/H175R/K168Q/Q94H/R138E/R41S/V100E); settings: percent relative the binding of a positive control peptide; wild-type epitopes marked **; cited from earlier work
[8] = target: T3, HLA-A*30:02; settings: wild-type epitopes marked **; cited from earlier work
[9] = target: T3, HLA-A*30:02; settings: wild-type epitopes marked **; cited from earlier work; remark: listed apart in the source
[10] = target: T1, HLA-A*02:01; format: binding; settings: percent relative the binding of positive control peptide […]; plate-bound monomer 0.5 µg/ml; duplicated experiments; positive binder >40%
[11] = target: T1, HLA-A*02:01; format: binding; settings: […]; peptide quantity for 50% binding saturation
[12] = target: T1, HLA-A*02:01; format: binding; settings: time points 0-8 h; time when 50% of peptide has dissociated
[13] = target: T2, HLA-A*24:02; format: binding; settings: percent relative the binding of positive control peptide […]; duplicated experiments; positive binder >40%
[14] = target: T4, HLA-A*30:01 (Homo sapiens, UniProt P04439, D140H/D185E/E176W/F33S/G80R/H175R/K168Q/R138E/R41S); format: binding; settings: percent relative the binding of positive control peptide […]; duplicated experiments; positive binder >40%
[15] = target: T4, HLA-A*30:01; experiment: affinity assay (ED50); format: binding; settings: peptide titrated 10−4 to 10−9 M
[16] = target: T4, HLA-A*30:01; experiment: off-rate assay (t1/2); format: binding; settings: time points 0-8 h
[17] = target: T3, HLA-A*30:02; format: binding; settings: percent relative the binding of positive control peptide […]; duplicated experiments; positive binder >40%
[18] = target: T5, HLA-A*68:01 (Homo sapiens, UniProt P04439, A269V/D185E/E176V/E277Q/E87N/F33Y/G231S/I121M/I166T/I218V/L180W/L300P/L318F/N151K/P208A/P217A/Q86R/R169H/T345S); format: binding; settings: duplicated experiments, positive binder >40%
[19] = target: T5, HLA-A*68:01; format: binding
[20] = target: T5, HLA-A*68:01; format: binding; settings: time points 0-8 h
[21] = target: HLA-B*07:02 (Homo sapiens, UniProt P01889); format: binding; settings: percent relative the binding of positive control peptide […]; duplicated experiments; positive binder >40%
[22] = target: T6, HLA-B*58:01 (Homo sapiens, UniProt P01889, A329T/C349S/D201E/D98Y/E176V/E187L/E204Q/E69T/G107R/I218V/I90N/K202T/L105A/L119I/N104I/N87E/Q89R/Q94S/R106L/R155S/R180L/R86G/S101N/S121R/S35A/S48A/T118I/V127L/V306I/V36M/Y140S/Y91M); format: binding; settings: percent relative the binding of positive control peptide […]; duplicated experiments; positive binder >40%
[23] = target: T6, HLA-B*58:01; format: binding
[24] = target: T6, HLA-B*58:01; format: binding; settings: time points 0-8 h
[25] = target: HLA-C*07:01 (Homo sapiens, UniProt P10321, K90N/S123Y); format: binding; settings: percent relative the binding of positive control peptide […]; duplicated experiments; positive binder >40%
[26] = target: T3, HLA-A*30:02; format: binding
[27] = target: T3, HLA-A*30:02; format: binding; settings: time points 0-8 h
[28] = percent relative the binding of positive control peptide […]

Q: With AMLGHAGDM [Rv0288_10–18wt] as the substance, how does the “Bind A*02:01” value [1] read?
A: Its value is 46* percent.

Q: What about the “Aff A*02:01 (ED50)” value [2] of the same substance?
A: The value was 6000 nM.

Q: What about the “O-rate A*02:01 (t1/2)” value [3] of the same substance?
A: Its value is 1.7 h.

Q: And the “Bind A*24:02” value ([4]; wild-type epitopes marked *)?
A: The value was 25* percent.

Q: And the “Aff A*24:02 (ED50)” value ([5]; wild-type epitopes marked *)?
A: The value was 100000 nM.

Q: What about the “O-rate A*24:02 (t1/2)” value ([6]; wild-type epitopes marked *) of the same substance?
A: Its value is 3.1 h.

Q: What about the “Bind A*30:02” value [7] of the same substance?
A: The value was 97** percent.

Q: What about the “Aff A*30:02 (ED50)” value [8] of the same substance?
A: Its value is 50 nM.

Q: What about the “O-rate A*30:02 (t1/2)” value [9] of the same substance?
A: The value was 1.2 h.

Q: With TLQSLGAEI [Rv0288_24–32wt] as the substance, how does the “Bind A*02:01” value [1] read?
A: The value was 46* percent.

Q: What about the “Aff A*02:01 (ED50)” value [2] of the same substance?
A: Its value is 3000 nM.

Q: What about the “O-rate A*02:01 (t1/2)” value [3] of the same substance?
A: Its value is 1.7 h.

Q: What about the “Bind A*24:02” value ([4]; wild-type epitopes marked *) of the same substance?
A: Its value is 16* percent.

Q: And the “Aff A*24:02 (ED50)” value ([5]; wild-type epitopes marked *)?
A: The value was 90 nM.

Q: What about the “O-rate A*24:02 (t1/2)” value ([6]; wild-type epitopes marked *) of the same substance?
A: The value was 39.8 h.

Q: Which results are given for AAYHPQQFI?
A: Bind A*02:01 [10]: 56%; Aff A*02:01 (ED50) [11]: 6E -07 M; O-rate A*02:01 (t1/2) [12]: 1.2 h; Bind A*24:02 [13]: 54%; Bind A*30:01 [14]: 83%; Aff A*30:01 (ED50) [15]: 2E -07 M; O-rate A*30:01 (t1/2) [16]: 0.5 h; Bind A*30:02 [17]: 34%; Bind A*68:01 [18, 28]: 47%; Aff A*68:01 (ED50) [19]: 3E -05 M; O-rate A*68:01 (t1/2) [20]: 3.8 h; Bind B*07:02 [21]: 9%; Bind B*58:01 [22]: 64%; Aff B*58:01 (ED50) [23]: 4E -08 M; O-rate B*58:01 (t1/2) [24]: 0.8 h; Bind C*07:01 [25]: 0%

Q: For KLVANNT RL, which “Bind A*02:01” value [10] is on record?
A: The value was 81%.

Q: What about the “Bind A*24:02” value [13] of the same substance?
A: Its value is 73%.

Q: And the “Bind A*30:01” value [14]?
A: The value was 60%.

Q: And the “Aff A*30:01 (ED50)” value [15]?
A: The value was 2E -08 M.

Q: What about the “O-rate A*30:01 (t1/2)” value [16] of the same substance?
A: Its value is 0.7 h.

Q: And the “Bind A*30:02” value [17]?
A: Its value is 167%.

Q: And the “Aff A*30:02 (ED50)” value [26]?
A: Its value is 1E -07 M.

Q: What about the “O-rate A*30:02 (t1/2)” value [27] of the same substance?
A: Its value is 2.2 h.

Q: What about the “Bind A*68:01” value [18, 28] of the same substance?
A: The value was 18%.

Q: And the “Bind B*07:02” value [21]?
A: The value was 43%.

Q: What about the “Bind B*58:01” value [22] of the same substance?
A: The value was 40%.

Q: And the “Bind C*07:01” value [25]?
A: The value was 13%.

Q: For NFVRSSNLK, which “Bind A*02:01” value [10] is on record?
A: The value was 3%.

Q: What about the “Bind A*24:02” value [13] of the same substance?
A: The value was 0%.

Q: And the “Bind A*30:01” value [14]?
A: Its value is 101%.

Q: And the “Aff A*30:01 (ED50)” value [15]?
A: Its value is 9E -07 M.

Q: And the “O-rate A*30:01 (t1/2)” value [16]?
A: The value was 0.4 h.

Q: And the “Bind A*30:02” value [17]?
A: The value was 0%.

Q: And the “Bind A*68:01” value [18, 28]?
A: The value was 84%.

Q: What about the “Aff A*68:01 (ED50)” value [19] of the same substance?
A: The value was 3E -06 M.

Q: What about the “O-rate A*68:01 (t1/2)” value [20] of the same substance?
A: Its value is 0.2 h.

Q: What about the “Bind B*07:02” value [21] of the same substance?
A: Its value is 0%.

Q: What about the “Bind B*58:01” value [22] of the same substance?
A: Its value is 10%.

Q: What about the “Bind C*07:01” value [25] of the same substance?
A: Its value is 0%.

Q: Which “Bind A*68:01” value ([18]; percent relative the binding of positive control peptide KTGGPIYKR) does the source give for DLVRAYHAM [Rv0288_64–72wt] here?
A: The value was 34%.

Q: And the “Aff A*68:01 (ED50)” value ([19]; peptide titrated 10−4 to 10−9 M)?
A: Its value is 0.0004 M.

Q: What about the “O-rate A*68:01 (t1/2)” value [20] of the same substance?
A: Its value is 3.3 h.

Q: What about the “Bind A*24:02” value ([4]; wild-type epitopes marked *) of the same substance?
A: The value was 31* percent.

Q: What about the “Aff A*24:02 (ED50)” value ([5]; wild-type epitopes marked *) of the same substance?
A: Its value is 2000 nM.

Q: And the “O-rate A*24:02 (t1/2)” value ([6]; wild-type epitopes marked *)?
A: Its value is 2.9 h.

Q: For MYNYPAMLG [Rv0288_5–13wt], which “Bind A*24:02” value ([4]; wild-type epitopes marked *) is on record?
A: The value was 72* percent.

Q: And the “Aff A*24:02 (ED50)” value ([5]; wild-type epitopes marked *)?
A: Its value is 600 nM.

Q: And the “O-rate A*24:02 (t1/2)” value ([6]; wild-type epitopes marked *)?
A: Its value is 1.4 h.

Q: And the “Bind A*30:02” value [7]?
A: The value was 45** percent.

Q: And the “Aff A*30:02 (ED50)” value [8]?
A: Its value is 7000 nM.

Q: What about the “O-rate A*30:02 (t1/2)” value [9] of the same substance?
A: Its value is 0.6 h.

Q: For GYAGTLQSL [Rv0288_20–28wt], which “Bind A*24:02” value ([4]; […]) is on record?
A: The value was 76* percent.

Q: And the “Aff A*24:02 (ED50)” value [5]?
A: The value was 300 nM.

Q: What about the “O-rate A*24:02 (t1/2)” value [6] of the same substance?
A: Its value is 3.7 h.
